Measured values from patent US20100120690A1, “Polypeptides Having Antimicrobial Activity and Polynucleotides Encoding Same” (Novozymes Adenium Biotech A/S, priority 2005, published 2010).

System: Staphylococcus carnosus ATCC51365
Test: Yeast screening assay: radial diffusion assay of yeast supernatants
Type: cell-based
Parameters: key: An activity of 3 is better than Plectasin; An activity of 2 corresponds to the activity of Plectasin; 1 is worse than Plectasin
Conditions: yeast supernatant, clearing zone in radial diffusion assay
Experimental: A range of antimicrobial polypeptides, which are variants of SEQ ID NO: 1 (Plectasin), were tested for antimicrobial activity by expressing them in S. cerevisae and screening the supernatant of the yeast transformants for antimicrobial activity against Staphylococcus carnosus ATCC51365.
Radial Diffusion Assay was carried out as described in Methods in Molecular Biology, Vol. 78, Antibacterial peptide protocol, William M. Shafer, Human Press.
200-300 yeast transformant colonies were plated on 14 cm round plates containing 25 mL SC growth medium supplemented with 1.5% galactose, 0.5% glucose and 1.5% agarose. Plates were incubated for three hours at room temperature, overlaid with 25 mL of the same growth medium and allowed to grow for three days at 30° C. Then the plates were overlaid with 25 mL of LB growth medium containing 1.5% agarose and 10^5 cells of the indicator strain Staphylococcus carnosus and incubated at 30° C. overnight to allow growth of the bacterial cells. Next day, the plates were stained with 1.5 mM MTT to facilitate visualization of the clearing zones.
Yeast colonies creating clearing zones were transferred to microtiter plates containing 200 micro-L of SC growth medium supplemented with 2% glucose and ampicillin (100 mg/L). Such plates designated “master plates” were incubated for 2 days at 30° C. with shaking at 450 rpm to allow yeast growth.
10 micro-L SC growth medium from each well of the master plates were transferred to new microtiter plates containing 200 micro-L SC growth medium with 1.5% galactose and 0.5% glucose. These plates were called daughter plates and were incubated for 3 days at 30° C. under 450 rpm shaking to allow yeast growth and peptide synthesis.
Finally a Radial Diffusion Assay (RDA) was performed following the protocol described in Methods in Molecular Biology to analyse and quantify the antimicrobial activity of the yeast supernatants against S. carnosus.
Briefly, 30 mL of minimal underlay medium containing 1% agarose and 5×10^5 cfu/mL of S. carnosus was poured in an omnitray plate (Nunc, 242811). A Nunc TSP plate (#445497) was inserted immediately on the plate to allow a 96 well pattern formation. Once the media had solidified, the TSP plate was removed and 10 micro-L of yeast supernatant samples were applied on the holes. Plates were incubated 3 hours at 37° C. and overlaid with 15 mL of LB agar growth medium. Finally, plates were incubated overnight at 37° C. and coloured with 1.5 mM MTT to visualize the clearing zones.
Inspection and measurements of the clearing zones was performed on the plates. The corresponding yeast clones resulting in clearing zones of similar or increased size than the clones encoding for wild type plectasin were picked from the master plates and transferred to agar plates containing SC growth medium with 2% glucose and ampicillin (100 mg/L). Such plates were incubated for further 2 days at 30° C. to allow yeast growth. Subsequently, colony PCR was performed followed by sequence analysis to identify amino acid changes in the plectasin sequence.
An activity of 2 corresponds to the activity of Plectasin. An activity of 3 is better than Plectasin, and 1 is worse than Plectasin.

| Sequence | Activity (antimicrobial activity relative to the activity of plectasin) |
| --- | --- |
| GFGCNGPWDEDDMQCHNFCKSIKGYKGGYCAKGGFVCKCY (Synthetic antimicrobial polypeptide) [Mutation H18F] | 2 |
| GFGCNGPWDEDDMQCHNHCKSIKAYKGGYCAKGGFVCKCY [Mutation G24A] | 2 |
| GFGCNGPWDEDDMQCHNHCKSIKFYKGGYCAKGGFVCKCY [Mutation G24F] | 2 |
| GFGCNGPWDEDDMQCHNHCKSIKGHKGGYCAKGGFVCKCY [Mutation Y25H] | 2 |
| GFGCNGPWDEDDMQCHNHCKSIKGKKGGYCAKGGFVCKCY [Mutation Y25K] | 2 |
| GFGCNGPWDEDDMQCHNHCKSIKGLKGGYCAKGGFVCKCY [Mutation Y25L] | 2 |
| GFGCNGPWDEDDMQCHNHCKSIKGMKGGYCAKGGFVCKCY [Mutation Y25M] | 2 |
| GFGCNGPWDEDDMQCHNHCKSIKGNKGGYCAKGGFVCKCY [Mutation Y25N] | 2 |
| GFGCNGPWDEDDMQCHNHCKSIKGQKGGYCAKGGFVCKCY [Mutation Y25Q] | 2 |
| GFGCNGPWDEDDMQCHNHCKSIKGSKGGYCAKGGFVCKCY [Mutation Y25S] | 2 |
| GFGCNGPWDEDDMQCHNHCKSIKGVKGGYCAKGGFVCKCY [Mutation Y25V] | 2 |
| GFGCNGPWDEDDMQCHNHCKSIKGYFGGYCAKGGFVCKCY [Mutation K26F] | 2 |
| GFGCNGPWDEDDMQCHNHCKSIKGYHGGYCAKGGFVCKCY [Mutation K26H] | 2 |
| GFGCNGPWDEDDMQCHNHCKSIKGYKGGACAKGGFVCKCY [Mutation Y29A] | 2 |
| GFGCNGPWDEDDMQCHNHCKSIKGYKGGFCAKGGFVCKCY [Mutation Y29F] | 3 |
| GFGCNGPWDEDDMQCHNHCKSIKGYKGGFCARGGFVCKCY [Y29F + K32R] | 2 |
| GFGCNGPWDEDDMQCHNHCKSIKGYKGGHCAKGGFVCKCY [Mutation Y29H] | 2 |
| GFGCNGPWDEDDMQCHNHCKSIKGYKGGLCAKGGFVCKCY [Mutation Y29L] | 2 |
| GFGCNGPWDEDDMQCHNHCKSIKGYKGGMCAKGGFVCKCY [Mutation Y29M] | 2 |
| GFGCNGPWDEDDMQCHNHCKSIKGYKGGRCAKGGFVCKCY [Mutation Y29R] | 3 |
| GFGCNGPWDEDDMQCHNHCKSIKGYKGGSCAKGGFVCKCY [Mutation Y29S] | 2 |
| GFGCNGPWDEDDMQCHNHCKSIKGYKGGWCAKGGFVCKCY [Mutation Y29W] | 3 |
| GFGCNGPWDEDDMQCHNHCKSIKGYKGGYCAKEGFVCKCY [Mutation G33E] | 2 |
| GFGCNGPWDEDDMQCHNHCKSIKGYKGGYCAKGGAVCKCY [Mutation F35A] | 2 |
| GFGCNGPWDEDDMQCHNHCKSIKGYKGGYCAKGGFICKCY [Mutation V36I] | 2 |
| GFGCNGPWDEDDMQCHNHCKSIKGYKGGYCAKGGFKCKCY [Mutation V36K] | 2 |
| GFGCNGPWDEDDMQCHNHCKSIKGYKGGYCAKGGFMCKCY [Mutation V36M] | 3 |

| Sequence | Activity (antimicrobial activity relative to the activity of plectasin) |
| --- | --- |
| GFGCNGPWDEDDMQCHNHCKSIKGYKGGYCAKGGFQCKCY [Mutation V36Q] | 2 |
| GFGCNGPWDEDDMQCHNHCKSIKGYKGGYCAKGGFRCKCY [Mutation V36R] | 2 |
| GFGCNGPWDEDDMQCHNHCKSIKGYKGGYCAKGGFTCKCY [Mutation V36T] | 3 |
| GFGCNGPWDEDDMQCHNHCKSIKGYKGGYCAKGGFVCHCY [Mutation K38H] | 2 |
| GFGCNGPWDEDDMQCHNHCKSIKGYKGGYCAKGGFVCKCI [Mutation Y40I] | 2 |
| GFGCNGPWDEDDMQCHNHCKSIKGYKGGYCAKGGFVCNCY [Mutation K38N] | 2 |
| GFGCNGPWDEDDMQCHNHCKSIKGYKGGYCAKGGFVCRCY [Mutation K38R] | 2 |
| GFGCNGPWDEDDMQCHNHCKSIKGYKGGYCAKGGHVCKCY [Mutation F35H] | 2 |
| GFGCNGPWDEDDMQCHNHCKSIKGYKGGYCAKGGIVCKCY [Mutation F35I] | 2 |
| GFGCNGPWDEDDMQCHNHCKSIKGYKGGYCAKGGLVCKCY [Mutation F35L] | 3 |
| GFGCNGPWDEDDMQCHNHCKSIKGYKGGYCAKGGMVCKCY [Mutation F35M] | 2 |
| GFGCNGPWDEDDMQCHNHCKSIKGYKGGYCAKGGVVCKCY [Mutation F35V] | 2 |
| GFGCNGPWDEDDMQCHNHCKSIKGYKGGYCAKGGWVCKCY [Mutation F35W] | 2 |
| GFGCNGPWDEDDMQCHNHCKSIKGYKGGYCAKGHFVCKCY [Mutation G34H] | 2 |
| GFGCNGPWDEDDMQCHNHCKSIKGYKGGYCAKGKFVCKCY [Mutation G34K] | 3 |
| GFGCNGPWDEDDMQCHNHCKSIKGYKGGYCAKGRFVCKCY [Mutation G34R] | 3 |
| GFGCNGPWDEDDMQCHNHCKSIKGYKGGYCAKGWFVCKCY [Mutation G34W] | 2 |
| GFGCNGPWDEDDMQCHNHCKSIKGYKGGYCAKKGFVCKCY [Mutation G33K] | 3 |
| GFGCNGPWDEDDMQCHNHCKSIKGYKGGYCAKNGFVCKCY [Mutation G33N] | 2 |
| GFGCNGPWDEDDMQCHNHCKSIKGYKGGYCAKQGFVCKCY [Mutation G33Q] | 3 |
| GFGCNGPWDEDDMQCHNHCKSIKGYKGGYCAKRGFVCKCY [Mutation G33R] | 3 |
| GFGCNGPWDEDDMQCHNHCKSIKGYKGGYCAKSGFVCKCY [Mutation G33S] | 2 |
| GFGCNGPWDEDDMQCHNHCKSIKGYKGGYCAKTGFVCKCY [Mutation G33T] | 2 |
| GFGCNGPWDEDDMQCHNHCKSIKGYKGGYCARGGFVCKCY [Mutation K32R] | 2 |
| GFGCNGPWDEDDMQCHNHCKSIKGYKGGYCARGKFVCKCY [K32R + G34K] | 2 |
| GFGCNGPWDEDDMQCHNHCKSIKGYKGGYCATGGFVCKCY [Mutation K32T] | 2 |
| GFGCNGPWDEDDMQCHNHCKSIKGYKGGYCEKGGFVCKCY [Mutation A31E] | 2 |
